Key:
Conditions in all cases: 72 h
HepG2 [1] = assay: relative viability EC50 (midpoint between 100% and the lowest measured viability); higher = less toxic
Calu-3 [2] = assay: as above
U2OS [3] = assay: as above
Vero E6 [4] = assay: as above
Caco-2 [5] = assay: as above
HepG2 [6] = assay: drug sensitivity score (DSS) for viability; higher = more toxic; extreme values may be limits of the assay
Calu-3 [7] = assay: as above
U2OS [8] = assay: as above
Vero E6 [9] = assay: as above
Caco-2 [10] = assay: as above
HepG2 [11] = assay: cell viability relative to DMSO; higher = less toxic
Calu-3 [12] = assay: as above
U2OS [13] = assay: as above
Vero E6 [14] = assay: as above
Caco-2 [15] = assay: as above

| Compound | relative viability EC50 (HepG2 [1]) [µM] | relative viability EC50 (Calu-3 [2]) [µM] | relative viability EC50 (U2OS [3]) [µM] | relative viability EC50 (Vero E6 [4]) [µM] | relative viability EC50 (Caco-2 [5]) [µM] | drug sensitivity score (HepG2 [6]) | drug sensitivity score (Calu-3 [7]) | drug sensitivity score (U2OS [8]) | drug sensitivity score (Vero E6 [9]) | drug sensitivity score (Caco-2 [10]) | cell viability (HepG2 [11]; 1 nM) [%] | cell viability (HepG2 [11]; 10 nM) [%] | cell viability (HepG2 [11]; 100 nM) [%] | cell viability (HepG2 [11]; 1000 nM) [%] | cell viability (HepG2 [11]; 10000 nM) [%] | cell viability (Calu-3 [12]; 1 nM) [%] | cell viability (Calu-3 [12]; 10 nM) [%] | cell viability (Calu-3 [12]; 100 nM) [%] | cell viability (Calu-3 [12]; 1000 nM) [%] | cell viability (Calu-3 [12]; 10000 nM) [%] | cell viability (U2OS [13]; 1 nM) [%] | cell viability (U2OS [13]; 10 nM) [%] | cell viability (U2OS [13]; 100 nM) [%] | cell viability (U2OS [13]; 1000 nM) [%] | cell viability (U2OS [13]; 10000 nM) [%] | cell viability (Vero E6 [14]; 1 nM) [%] | cell viability (Vero E6 [14]; 10 nM) [%] | cell viability (Vero E6 [14]; 100 nM) [%] | cell viability (Vero E6 [14]; 1000 nM) [%] | cell viability (Vero E6 [14]; 10000 nM) [%] | cell viability (Caco-2 [15]; 1 nM) [%] | cell viability (Caco-2 [15]; 10 nM) [%] | cell viability (Caco-2 [15]; 100 nM) [%] | cell viability (Caco-2 [15]; 1000 nM) [%] | cell viability (Caco-2 [15]; 10000 nM) [%] |
| --- | --- | --- | --- | --- | --- | --- | --- | --- | --- | --- | --- | --- | --- | --- | --- | --- | --- | --- | --- | --- | --- | --- | --- | --- | --- | --- | --- | --- | --- | --- | --- | --- | --- | --- | --- |
| N[C@@H](Cc1cc(-c2ccc(Cl)cc2Cl)cc(CP(=O)(O)O)c1O)C(=O)O [SDZ-220-040] | > 10 | > 10 | > 10 | > 10 | > 10 | 0 | 0 | 0 | 0 | 0 | 97.4 | 108 | 99.2 | 104 | 89.1 | 105 | 104 | 98.2 | 108 | 110 | 105 | 98.6 | 103 | 98.2 | 100 | 98.7 | 102 | 106 | 104 | 100 | 103 | 99.5 | 94.3 | 94.3 | 102 |
| Cc1cccc(/C=C/c2ccccc2)n1 [SIB-1893] | > 10 | > 10 | > 10 | > 10 | > 10 | 0 | 0 | 0 | 0 | 0 | 108 | 96.1 | 107 | 102 | 94.2 | 100 | 102 | 99.2 | 98.1 | 102 | 99.8 | 106 | 96.3 | 103 | 97.4 | 94 | 104 | 102 | 103 | 100 | 88.7 | 101 | 90.7 | 100 | 96.9 |
| N[C@@H](C(=O)O)[C@@H](OCc1ccccc1)C(=O)O.N[C@H](C(=O)O)[C@H](OCc1ccccc1)C(=O)O [TBOA-(DL)] | > 10 | > 10 | > 10 | > 10 | > 10 | 0.3 | 0 | 0 | 0 | 0 | 100 | 94.1 | 91.5 | 96.6 | 82.5 | 96.7 | 87.8 | 92.4 | 98.4 | 109 | 99.5 | 101 | 97.2 | 95 | 99.2 | 104 | 100 | 101 | 96.6 | 98.8 | 96.3 | 94.6 | 89.8 | 90.2 | 92.4 |
| COC1CCN(c2cccc(-c3cc(NC(C)=O)nc(-n4nc(C)cc4C)n3)n2)CC1 [TC-G-1004] | 1.12 | > 10 | > 10 | > 10 | 2.88 | 5.5 | 0 | 0 | 0.1 | 4.8 | 84.7 | 101 | 75.3 | 90.9 | 44 | 103 | 94.9 | 103 | 91.8 | 93.1 | 105 | 97.6 | 104 | 102 | 95 | 103 | 107 | 101 | 104 | 86.7 | 106 | 89.3 | 111 | 96.9 | 20.7 |
| CC(C)(C)NCC(O)c1cc(O)cc(O)c1 (stereo not given) [TERBUTALINE HEMISULFATE] | > 10 | > 10 | > 10 | > 10 | > 10 | 0 | 0 | 0 | 0 | 0.6 | 109 | 102 | 106 | 94.5 | 92.3 | 104 | 106 | 99.7 | 95 | 98.3 | 102 | 98.6 | 105 | 100 | 106 | 105 | 101 | 101 | 105 | 98.9 | 99 | 104 | 88.7 | 91.8 | 98.2 |
| Nc1nc(NC2CC2)cc(-c2cccc(Cl)c2Cl)n1 [TH-588] | > 10 | > 10 | > 10 | > 10 | > 10 | 0 | 0 | 0 | 0 | 0 | 95.4 | 97.1 | 102 | 101 | 95.4 | 95.5 | 94 | 101 | 104 | 98.5 | 96.3 | 99.2 | 105 | 97.9 | 98.6 | 100 | 104 | 98.1 | 101 | 89.6 | 92.1 | 91.1 | 96.4 | 93.7 | 96.8 |
| CC(C)(C)C(=O)OCOP(=O)(COCCn1cnc2c(N)ncnc21)OCOC(=O)C(C)(C)C [adefovir-dipivoxil] | 0.741 | 2.46 | > 10 | > 10 | > 10 | 10.1 | 3.5 | 0.8 | 0 | 1.9 | 106 | 93.8 | 101 | 49.1 | 25.2 | 92.9 | 97.6 | 106 | 95.5 | 47.6 | 96.2 | 101 | 97.8 | 102 | 75.5 | 101 | 106 | 107 | 99.7 | 89.3 | 93.7 | 87.6 | 87.5 | 95.4 | 75.6 |
